Key:
[1] = tested on: maize (Zea mays, variety “LORENZO”); experiment: Root growth assay, maize; assay type: in vivo; conditions: for Root Growth: wet root weight 16 days post treatment, Root Growth of 100 set as the standard
Excerpt: (§1) Plant roots are a highly proliferative tissue that allows an easy accessible, cheap and short term screening method for plant growth regulators. The results obtained can easily be transferred to the overall effects on a plant of plant growth regulators identified by such a system. By using this root assay one is enabled to determine the effect of a seed treatment to root growth and/or germination and/or changes in habitat of germinated plants in order to identify the possible use as a yield enhancer. Two seeds of wheat (Triticum aestivum, variety “TRISO”) or 1 seed of maize (Zea mays, variety “LORENZO”) per hole in a plastic tray which contains an architecture of 8×13 holes were placed on compost soil covered with sand. These seeds were treated with 100 μl/ hole, which creates an application volume of approx. 1200 I/ha, of a compound solution at active ingredient rates equivalent to 100, 10 and 1 g a.i./ha of each compound using an robotic application system (Lizzy Spray Robotics). Six replicates in a row of each compound and concentration were done. The outer rim of the above defined plastic tray was untreated to avoid false negative effects and the middle row (No. 7) was used as untreated control. The treated seeds were allowed to dry for approx. 4 hours and subsequently covered with sand and watered. The trays were stored in climate chambers with 14 hours lighting at a temperature of 24° C. (±2) at daytime and 16° C. (±2) at night and relative humidity (rH) of 60% and daily watered. Assessments were done 16 (±2) days post treatment by counting the germinated plants and assessing the phytotoxicity symptoms and percentage. In addition, the roots were washed out and the shoots were cut directly above the seed and the wet roots were placed on dry paper towels for approximately 30 minutes and weighted afterwards. This procedure provides a similar grade of moisture to the roots so that a comparison of the weights is possible. […] The effects observed concerning Root Growth given in column 2 (Root Growth of “100” is set as the standard) are directed to concentrations that are equivalent to 100, 10, 1 g a.i./ha, each.

[2] = tested on: wheat (Triticum aestivum, variety “TRISO”); experiment: Root growth assay, wheat; assay type: in vivo; conditions: for Root Growth: wet root weight 16 days post treatment, Root Growth of 100 set as the standard
Excerpt: as §1

[3] = tested on: maize hybrid Magister and Zamora; experiment: Field trial, seed-treated maize, grain yield; assay type: in vivo; conditions: seed treatment 1 g/100 kg seeds (0.0003 kg/ha)
Excerpt: Maize seeds of maize hybrid Magister and Zamora were seed treated with compound 1.136 at 1 g/100 kg seeds (0.0003 kg/ha). Field trials were set up in a split plot design representing the plants treated with compounds of formula (I) as well as the non-treated control plants.

melting point [°C] | SMILES | effect as plant growth regulator in maize (in words) [1] | Root Growth ([1]; 1 g a.i./ha) | Root Growth ([1]; 10 g a.i./ha) | Root Growth ([1]; 100 g a.i./ha) | effect as plant growth regulator in wheat (in words) [2] | Root Growth ([2]; 1 g a.i./ha) | Root Growth ([2]; 10 g a.i./ha) | Root Growth ([2]; 100 g a.i./ha) | increase in grain yield compared to non-treated control plants ([3]; maize hybrid Magister) | increase in grain yield compared to non-treated control plants ([3]; maize hybrid Zamora)
 | NC(=O)c1nn(-c2c(Cl)cc(C(F)(F)F)cc2Cl)c(N)c1[S+]([O-])C(F)(F)F (stereo not shown) [Compound 1.136] | significant effects of approximately the same size | 107 | 131 | 74 | significant effects of approximately the same size | 124 | 75 | 58 | up to 119% | up to 131%
 | CCCCCNC(=O)c1nn(-c2c(Cl)cc(C(F)(F)F)cc2Cl)c(N)c1[S+]([O-])C(F)(F)F (stereo not shown) [Compound 1.141] | remarkable effect | 111 | 102 | 95 | superior effect | 257 | 160 | 256 |  | 
 | Nc1c([S+]([O-])C(F)(F)F)c(C(=O)NCC2CCCO2)nn1-c1c(Cl)cc(C(F)(F)F)cc1Cl (stereo not shown) [Compound 1.144] |  |  |  |  |  | 170 | 115 | 110 |  | 
 | CNc1c([S+]([O-])C(F)(F)F)c(C(=O)N(C)C)nn1-c1c(Cl)cc(C(F)(F)F)cc1Cl (stereo not shown) [Compound 1.228] |  | 72 | 111 | 186 |  |  |  |  |  | 
 | Nc1c(SC(F)(F)F)c(C(=O)O)nn1-c1c(Cl)cc(C(F)(F)F)cc1Cl [Compound 2.10, 5-Amino-1-(2,6-dichloro-4-trifluoromethylphenyl)-4-trifluoromethylthio-1H-pyrazole-3-carboxylic acid] |  |  |  |  |  | 158 | 118 | 134 |  | 
161 | CCOc1c(SC(F)(F)F)c(C(N)=O)nn1-c1c(Cl)cc(C(F)(F)F)cc1Cl [Compound 3.3, 1-(2,6-Dichloro-4-trifluoromethylphenyl)-5-ethoxy-4-trifluoromethylthio-1H-pyrazole-3-carboxylic acid amide] |  |  |  |  |  |  |  |  |  | 

Source: patent US20070149406A1, “Plant growth regulation” (Bayer CropScience GmbH, priority 2003, published 2007)
